Marks after values point to notes of the source that are not given here.
Legend:
aconitine arrhythmia = assay: animal or person; format: in vivo, rats; conditions: Rattus norvegicus, iv, read-out: Aconitine arrhythmia ED50
Procedure: Aconitine arrhythmia. The aconitine arrhythmia was induced in concious rats weighing 180-200 g by the injection in tail vein of the aconitine sulfate solution at dose range of […]. […] The tested compounds were administered i.v. 3 min prior aconitine injection. The ED50 value was calculated according to Litchfield's method.

adrenaline arrhythmia = adrenaline arrhythmia in concious rabbits; conditions: given 2 min before arrhythmogenic dose of adrenaline
Procedure: Adrenaline arrhythmia. The 0,1% solution of adrenaline hydrochloride was injected to the marginal ear's vein of rabbit weighing 2,5-3,0 kg at dose ranging 120-150 mcg/kg which induced cardiac rhythm disturbances of two types.
The tested compound was injected in 3 ml of distilled water 30 min after determination of arrhythmogenic dose of adrenaline and the ECG was recorded in 2nd standard lead. 2 min after administration of tested compound the arrhythmogenic dose of adrenaline was injected.

cats = assay: hemodynamics and activity of intact heart in cats under anesthesia; format: in vivo; conditions: for Cardiac volume, change from basal level / Heart rate, change from basal level / Mean blood flow accelaration (aortic), change from basal level / Mean blood pressure, change from basal level / Stroke volume, change from basal level: cats
Procedure: The effects of compounds on the hemodynamics and activity of intact heart were studied in cats under anesthesia. The experiments were carried out under conditions of open chest. The phase curve of aortic blood flow was the main index of cardiac activity. The compounds were administered i.v. in physiological solution. The t-Student' test was used to estimate the statistical significance.

[1] = system: ventricular fibrillations; assay: ventricular fibrillation, 7-min occlusion and reperfusion of coronary artery in anesthetized rats; format: in vivo; conditions: anesthetized rats, 1 mg/kg i.v., 18 animals
Outline: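 Male rats (180-240 g) under nembutal (60 mg/kg i.v.), open chest, ventilated, given compounds i.v. (1,0 or 2,0 mg/kg; saline control). Left coronary artery occluded 7 min, then reperfused, with lead II ECG. Fibrillations and arrhythmias counted and scored on a 0–4 point scale.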

[2] = 1.0 mg/kg i.v., after injection
[3] = 2.0 mg/kg i.v., after injection

Compound: CN(C)CCSc1nc2ccccc2n1CCc1ccccc1 [Compound XX, 1-(β-Phenylethyl)-2-[2-(dimethylamino)ethylthio]-benzimidazole]
- ED50 (aconitine arrhythmia): < 0.5 mg/kg
- Adrenaline arrhythmia. Range of active doses (adrenaline arrhythmia): 0.2−0.7 mg/kg
- effect on contractile function of heart, in words (cats; cats i.v., same doses as bradycardia): slightly enhanced the contractility of myocardium
- duration of bradycardia after administration (cats; cats i.v., VIII 1,0, IX 0,5 and 1,0, XX 1,0 and 2,0 mg/kg): 30 min
- effect on heart rate, in words (cats; cats i.v., VIII 1,0, IX 0,5 and 1,0, XX 1,0 and 2,0 mg/kg, XXIII 1.0, verapamil 0.5 mg/kg): expressed bradycardia
- Cardiac volume, change from basal level (cats; 1.0 mg/kg i.v., after 2 min): +2.5 ± 0.9%
- Heart rate, change from basal level (cats; 1.0 mg/kg i.v., after 2 min): −4.9 ± 1.5 %
- Mean blood flow accelaration (aortic), change from basal level (cats; 1.0 mg/kg i.v., after 2 min): −1.4 +1.8%
- Mean blood pressure, change from basal level (cats; 1.0 mg/kg i.v., after 2 min): ± 5.1 ± 1.7 %
- Stroke volume, change from basal level (cats; 1.0 mg/kg i.v., after 2 min): +7.9 ± 1.6 %
- Cardiac volume, change from basal level (cats; 1.0 mg/kg i.v., after 5 min): −3.9 ± 1.5%
- Heart rate, change from basal level (cats; 1.0 mg/kg i.v., after 5 min): −5.2 ± 2.1%
- Mean blood flow accelaration (aortic), change from basal level (cats; 1.0 mg/kg i.v., after 5 min): −3.6 ± 2.4%
- Mean blood pressure, change from basal level (cats; 1.0 mg/kg i.v., after 5 min): +2.0 ± 1.0%
- Stroke volume, change from basal level (cats; 1.0 mg/kg i.v., after 5 min): +1.7 ± 3.4%
- Cardiac volume, change from basal level (cats; 1.0 mg/kg i.v., after 10 min): −3.9 ± 2.8%
- Heart rate, change from basal level (cats; 1.0 mg/kg i.v., after 10 min): −4.3 ± 1.9%
- Mean blood flow accelaration (aortic), change from basal level (cats; 1.0 mg/kg i.v., after 10 min): −0.6 ± 2.1%
- Mean blood pressure, change from basal level (cats; 1.0 mg/kg i.v., after 10 min): +1.7 ± 1.2%
- Stroke volume, change from basal level (cats; 1.0 mg/kg i.v., after 10 min): +0.6 ± 3.5%
- Cardiac volume, change from basal level (cats; 1.0 mg/kg i.v., after 20 min): −4.1 ± 2.8%
- Heart rate, change from basal level (cats; 1.0 mg/kg i.v., after 20 min): −5.0 ± 4.2%
- Mean blood flow accelaration (aortic), change from basal level (cats; 1.0 mg/kg i.v., after 20 min): −2.8 ± 2.6%
- Mean blood pressure, change from basal level (cats; 1.0 mg/kg i.v., after 20 min): +3.3 ± 2.4%
- Stroke volume, change from basal level (cats; 1.0 mg/kg i.v., after 20 min): +1.4 ± 3.8%
- Cardiac volume, change from basal level (cats; 1.0 mg/kg i.v., after 30 min): −7.0 ± 3.4%
- Heart rate, change from basal level (cats; 1.0 mg/kg i.v., after 30 min): −5.0 ± 4.2%
- Mean blood flow accelaration (aortic), change from basal level (cats; 1.0 mg/kg i.v., after 30 min): −3.2 ± 1.8%
- Mean blood pressure, change from basal level (cats; 1.0 mg/kg i.v., after 30 min): +0.3 ± 3.0%
- Stroke volume, change from basal level (cats; 1.0 mg/kg i.v., after 30 min): −0.5 ± 4.4%
- Heart rate, change from basal level (cats; [2]): −7.9 ± 1.7 %
- Mean blood flow accelaration (aortic), change from basal level (cats; [2]): +10.7 ± 3.3 %
- Mean blood pressure, change from basal level (cats; [2]): −0.9 ± 2.7%
- Stroke volume, change from basal level (cats; [2]): +25.2 ± 2.6 %
- Cardiac volume, change from basal level (cats; 2.0 mg/kg i.v., after 2 min): +1.2 ± 2.8%
- Heart rate, change from basal level (cats; 2.0 mg/kg i.v., after 2 min): −5.2 ± 1.8 %
- Mean blood flow accelaration (aortic), change from basal level (cats; 2.0 mg/kg i.v., after 2 min): −3.0 ± 3.9%
- Mean blood pressure, change from basal level (cats; 2.0 mg/kg i.v., after 2 min): ± 4.6 ± 3.5%
- Stroke volume, change from basal level (cats; 2.0 mg/kg i.v., after 2 min): +6.9 ± 3.1%
- Cardiac volume, change from basal level (cats; 2.0 mg/kg i.v., after 5 min): −0.5 ± 3.1%
- Heart rate, change from basal level (cats; 2.0 mg/kg i.v., after 5 min): −4.5 ± 1.4 %
- Mean blood flow accelaration (aortic), change from basal level (cats; 2.0 mg/kg i.v., after 5 min): +1.6 ± 5.1%
- Mean blood pressure, change from basal level (cats; 2.0 mg/kg i.v., after 5 min): +3.3 ± 2.5%
- Stroke volume, change from basal level (cats; 2.0 mg/kg i.v., after 5 min): +4.2 ± 3.8%
- Cardiac volume, change from basal level (cats; 2.0 mg/kg i.v., after 10 min): −1.4 ± 3.0%
- Heart rate, change from basal level (cats; 2.0 mg/kg i.v., after 10 min): −3.1 ± 1.6%
- Mean blood flow accelaration (aortic), change from basal level (cats; 2.0 mg/kg i.v., after 10 min): −1.0 ± 3.1%
- Mean blood pressure, change from basal level (cats; 2.0 mg/kg i.v., after 10 min): −1.0 ± 1.8%
- Stroke volume, change from basal level (cats; 2.0 mg/kg i.v., after 10 min): +1.8 ± 2.1%
- Cardiac volume, change from basal level (cats; 2.0 mg/kg i.v., after 20 min): −4.7 ± 5.2%
- Heart rate, change from basal level (cats; 2.0 mg/kg i.v., after 20 min): −3.6 ± 1.7%
- Mean blood flow accelaration (aortic), change from basal level (cats; 2.0 mg/kg i.v., after 20 min): −3.8 ± 4.0%
- Mean blood pressure, change from basal level (cats; 2.0 mg/kg i.v., after 20 min): −5.3 ± 0.8 %
- Stroke volume, change from basal level (cats; 2.0 mg/kg i.v., after 20 min): −1.1 ± 5.4%
- Cardiac volume, change from basal level (cats; 2.0 mg/kg i.v., after 30 min): −5.5 ± 5.2%
- Heart rate, change from basal level (cats; 2.0 mg/kg i.v., after 30 min): −4.0 ± 2.2%
- Mean blood flow accelaration (aortic), change from basal level (cats; 2.0 mg/kg i.v., after 30 min): −6.2 ± 4.9%
- Mean blood pressure, change from basal level (cats; 2.0 mg/kg i.v., after 30 min): −9.6 ± 3.5%
- Stroke volume, change from basal level (cats; 2.0 mg/kg i.v., after 30 min): +1.7 ± 3.9%
- Cardiac volume, change from basal level (cats; [3]): +22.7 ± 6.6 %
- Heart rate, change from basal level (cats; [3]): −10.7 ± 2.5 %
- Mean blood flow accelaration (aortic), change from basal level (cats; [3]): +22.5 ± 9.3%
- Mean blood pressure, change from basal level (cats; [3]): −13.6 ± 5.1%
- Stroke volume, change from basal level (cats; [3]): +38.5 ± 10.6 %
- Number of VF (ventricular fibrillations) ([1]; control 15 of 24): 7^
- Number of LHA (lethality hazardous arrhythmia) ([1]; control 22 of 24): 11*
- Total numbers of arrhyt. ([1]; control 24 of 24): 13**
- Severity of arrhythmias ([1]; control 66): 34* points

Source: patent US6376666B1 (Nauchno-Issledovatelsky Institut Farmakologii Rossiiskoi …, priority 1994, dated 2002)
